# From paper PMC9524145, “Open channel block of Kv1.5 channels by HMQ1611” (Frontiers in Pharmacology, 2022)
# Experiments:
# Type in all cases: cell-based
# [1] = biological target: T1, hKv1.5 T479A mutant channel (Homo sapiens, UniProt P22460, T479A); assay: whole-cell patch-clamp of T479A mutant hKv1.5 current in CHO cells; details: 5 μM HMQ1611, late current at +30 mV, n = 8, p < 0.01 vs. WT
# T1 construct: Full-length cDNA encoding wild-type (WT) hKv1.5 (KCNA5) subcloned into the pcDNA3.1 expression vector; expressed in transfected cells; host or cells: CHO cells, transient transfection (pcDNA3.1), GFP cDNA co-transfected as a separate marker
# T1 sequence (P22460 whole entry T479A): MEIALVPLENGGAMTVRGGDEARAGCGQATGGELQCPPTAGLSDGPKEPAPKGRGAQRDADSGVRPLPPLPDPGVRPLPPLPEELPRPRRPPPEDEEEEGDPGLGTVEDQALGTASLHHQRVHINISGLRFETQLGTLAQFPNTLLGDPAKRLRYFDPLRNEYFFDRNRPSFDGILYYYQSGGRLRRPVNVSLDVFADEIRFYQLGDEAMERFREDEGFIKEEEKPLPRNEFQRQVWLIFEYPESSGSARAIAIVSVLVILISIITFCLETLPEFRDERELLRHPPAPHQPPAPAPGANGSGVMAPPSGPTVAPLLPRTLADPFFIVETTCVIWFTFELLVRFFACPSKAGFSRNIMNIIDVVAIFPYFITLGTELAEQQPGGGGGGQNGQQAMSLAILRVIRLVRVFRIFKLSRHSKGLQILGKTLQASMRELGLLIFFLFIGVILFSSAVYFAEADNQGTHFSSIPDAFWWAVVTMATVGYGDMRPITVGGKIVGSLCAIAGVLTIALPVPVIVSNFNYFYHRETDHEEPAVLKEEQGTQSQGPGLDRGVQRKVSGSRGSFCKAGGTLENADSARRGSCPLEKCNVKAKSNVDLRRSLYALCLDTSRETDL
# Description: (§1) Full-length cDNA encoding wild-type (WT) hKv1.5 (KCNA5) subcloned into the pcDNA3.1 expression vector was kindly provided by Dr. David Fedida (University of British Columbia, Canada). All hKv1.5 mutants (T462C, H463C, T479A, T480A, R487V, A501V, I502A, V505A, I508A, A509G, L510A, V512A, and V516A cDNAs) were constructed using a QuickChange II XL site-directed mutagenesis kit according to the manufacturer’s instructions (Stratagene, La Jolla, CA, USA) and subcloned into the pcDNA3.1. All mutants were fully sequenced (ABI3100x; Applied Biosystems, Foster City, CA, USA) to ensure fidelity.
# (§2) WT or mutant hKv1.5 cDNA was transiently transfected into CHO cells together with green fluorescent protein (GFP) cDNA (0.5 μg WT or mutant hKv1.5 + 0.5 μg GFP) using Lipofectamine (Invitrogen Life Technologies, Carlsbad, CA, USA). […]
# (§3) Kv1.5 currents were recorded using an EPC-8 patch-clamp amplifier (HEKA, Lambrecht, Germany) at 25°C. […]
# (§4) The concentration–response curve for inhibition of hKv1.5 current by HMQ1611 was drawn by a least-squares fit of the Hill equation: %Control=1/(1+(IC50/[D])^nH), (2) where % Control represents the current in presence of the drug normalized with reference to the control amplitude (expressed as a percentage), IC50 is the concentration of HMQ1611 causing a half-maximal inhibition, nH is the Hill coefficient, and [D] is the drug concentration. […]
# [2] = biological target: T2, hKv1.5 L510A mutant channel (Homo sapiens, UniProt P22460, L510A); assay: whole-cell patch-clamp of L510A mutant hKv1.5 current in CHO cells; details: 5 μM HMQ1611, late current at +30 mV, n = 6, p < 0.01 vs. WT
# T2 construct: Full-length cDNA encoding wild-type (WT) hKv1.5 (KCNA5) subcloned into the pcDNA3.1 expression vector; expressed in transfected cells; host or cells: CHO cells, transient transfection (pcDNA3.1), GFP cDNA co-transfected as a separate marker
# T2 sequence (P22460 whole entry L510A): as the sequence (P22460 whole entry T479A) above, with A479T, L510A counted along it
# Description: as §1, §2, §3, §4
# [3] = biological target: T3, hKv1.5 V512A mutant channel (Homo sapiens, UniProt P22460, V512A); assay: whole-cell patch-clamp of V512A mutant hKv1.5 current in CHO cells; details: 5 μM HMQ1611, late current at +30 mV, n = 6, p < 0.01 vs. WT
# T3 construct: Full-length cDNA encoding wild-type (WT) hKv1.5 (KCNA5) subcloned into the pcDNA3.1 expression vector; expressed in transfected cells; host or cells: CHO cells, transient transfection (pcDNA3.1), GFP cDNA co-transfected as a separate marker
# T3 sequence (P22460 whole entry V512A): as the sequence (P22460 whole entry T479A) above, with A479T, V512A counted along it
# Description: as §1, §2, §3, §4
# [4] = biological target: T4, hKv1.5 V505A mutant channel (Homo sapiens, UniProt P22460, V505A); assay: whole-cell patch-clamp of V505A mutant hKv1.5 current in CHO cells
# T4 construct: Full-length cDNA encoding wild-type (WT) hKv1.5 (KCNA5) subcloned into the pcDNA3.1 expression vector; expressed in transfected cells; host or cells: CHO cells, transient transfection (pcDNA3.1), GFP cDNA co-transfected as a separate marker
# T4 sequence (P22460 whole entry V505A): as the sequence (P22460 whole entry T479A) above, with A479T, V505A counted along it
# Description: as §1
# (§5) WT or mutant hKv1.5 cDNA was transiently transfected into CHO cells together with green fluorescent protein (GFP) cDNA (0.5 μg WT or mutant hKv1.5 + 0.5 μg GFP) using Lipofectamine (Invitrogen Life Technologies, Carlsbad, CA, USA). Patch-clamp experiments were conducted on GFP-positive cells 48 h after transfection.
# (§6) Kv1.5 currents were recorded using an EPC-8 patch-clamp amplifier (HEKA, Lambrecht, Germany) at 25°C. The data were low-pass filtered at 1 kHz, acquired at 5 kHz through an LIH-1600 analogue-to-digital converter (HEKA), and stored on a hard disc drive using Pulse/PulseFit software (HEKA). For experiments to measure the activation time course of hKv1.5 currents, the data were low-pass filtered at 10 kHz and sampled at 50 kHz. […] Cells attached to glass cover slips were transferred to a recording chamber (0.5 ml in volume) mounted on the stage of an inverted microscope (ECLIPSE TE2000-U, Nikon, Tokyo, Japan) and perfused continuously with Tyrode solution at a flow rate of 1 ml/min.
# as §4
# [5] = biological target: T5, hKv1.5 T480A mutant channel (Homo sapiens, UniProt P22460, T480A); assay: whole-cell patch-clamp of T480A mutant hKv1.5 current in CHO cells
# T5 construct: Full-length cDNA encoding wild-type (WT) hKv1.5 (KCNA5) subcloned into the pcDNA3.1 expression vector; expressed in transfected cells; host or cells: CHO cells, transient transfection (pcDNA3.1), GFP cDNA co-transfected as a separate marker
# T5 sequence (P22460 whole entry T480A): as the sequence (P22460 whole entry T479A) above, with A479T, T480A counted along it
# Description: as §1, §2, §3, §4
# [6] = biological target: T6, hKv1.5 I508A mutant channel (Homo sapiens, UniProt P22460, I508A); assay: whole-cell patch-clamp of I508A mutant hKv1.5 current in CHO cells
# T6 construct: Full-length cDNA encoding wild-type (WT) hKv1.5 (KCNA5) subcloned into the pcDNA3.1 expression vector; expressed in transfected cells; host or cells: CHO cells, transient transfection (pcDNA3.1), GFP cDNA co-transfected as a separate marker
# T6 sequence (P22460 whole entry I508A): as the sequence (P22460 whole entry T479A) above, with A479T, I508A counted along it
# Description: as §1, §5, §6, §4
# [7] = biological target: T7, wild-type (WT) hKv1.5 (KCNA5) channel (Homo sapiens, UniProt P22460); assay: whole-cell patch-clamp of wild-type hKv1.5 current in transfected CHO cells
# T7 construct: Full-length cDNA encoding wild-type (WT) hKv1.5 (KCNA5) subcloned into the pcDNA3.1 expression vector; expressed in transfected cells; host or cells: CHO cells, transient transfection (pcDNA3.1), GFP cDNA co-transfected as a separate marker
# T7 sequence (P22460 whole entry): as the sequence (P22460 whole entry T479A) above, with A479T counted along it
# Description: Chinese hamster ovary (CHO) cells donated by Dr. Takeru Makiyama (Kyoto University Graduate School of Medicine, Japan) were cultured in Dulbecco’s modified Eagle’s medium/Ham’s F-12 (DMEM/F-12) medium supplemented with 10% fetal bovine serum and antibiotics (100 IU/ml penicillin and 100 μg/ml streptomycin) in a humidified atmosphere with 5% CO2 and 95% air at 37°C. Cells were passaged every 3–4 days with trypsin–EDTA, and a portion of the cells was seeded onto glass cover slips (5 × 3 mm^2) for subsequent transfection.
# as §1, §5, §6
# hKv1.5 channel currents were elicited by applying 300 ms depolarizing steps from a holding potential of -80 mV to various levels of -50 mV to +50 mV in 10 mV steps with a return potential of -40 mV, and each stimulus interval was longer than 10 s. Voltage-dependent activation of hKv1.5 channels was assessed by fitting the normalized I–V relations of the tail currents to a Boltzmann equation: Itail=1/(1+exp((V1/2−Vm)/k)), (1) where I tail is the tail current amplitude normalized with reference to the maximum value measured at +50 mV, V 1/2 is the voltage at half-maximal activation, V m is the test potential, and k is the slope factor.
# The concentration–response curve for inhibition of hKv1.5 current by HMQ1611 was drawn by a least-squares fit of the Hill equation: %Control=1/(1+(IC50/[D])^nH), (2) where % Control represents the current in presence of the drug normalized with reference to the control amplitude (expressed as a percentage), IC50 is the concentration of HMQ1611 causing a half-maximal inhibition, nH is the Hill coefficient, and [D] is the drug concentration.
# The apparent rate constants for binding (k +1) and unbinding (k -1) were obtained by fitting the equation: τD=1/(k+1[D]+k−1), (3) where τD is the drug-induced time constant, which was calculated from single exponential fits to the traces of current decay during the depolarizing step to +30 mV.
# The apparent dissociation constant K D is expressed as kD=k−1/k+1. (4)
# Deactivation kinetics of hKv1.5 were determined by fitting a single exponential function to the tail current trace (obtained by depolarizing a cell to +30 mV for 300 ms, followed by a repolarizing pulse to -40 mV).
# Normal Tyrode solution contained 140 mM NaCl, 5.4 mM KCl, 1.8 mM CaCl2, 0.5 mM MgCl2, 0.33 mM NaH2PO4, 5.5 mM glucose, and 5.0 mM HEPES (pH adjusted to 7.4 with NaOH). […]
# [8] = biological target: T8, hKv1.5 V516A mutant channel (Homo sapiens, UniProt P22460, V516A); assay: whole-cell patch-clamp of V516A mutant hKv1.5 current in CHO cells
# T8 construct: Full-length cDNA encoding wild-type (WT) hKv1.5 (KCNA5) subcloned into the pcDNA3.1 expression vector; expressed in transfected cells; host or cells: CHO cells, transient transfection (pcDNA3.1), GFP cDNA co-transfected as a separate marker
# T8 sequence (P22460 whole entry V516A): as the sequence (P22460 whole entry T479A) above, with A479T, V516A counted along it
# Description: as §1, §2, §3, §4
# [9] = from τD of current decay at +30 mV vs drug concentration
structure (smiles),measurement,setting,value
CNC(=O)c1ccc(OC)c(OCC(=O)Nc2ccc(F)c(Cl)c2)c1-c1c(C(=O)NC)ccc(OC)c1OCC(=O)Nc1ccc(F)c(Cl)c1 [HMQ1611],inhibition at 5 µM,[1],51.1 ± 4.99%
same,inhibition at 5 µM,[2],11.2 ± 2.24%
same,inhibition at 5 µM,[3],47.2 ± 3.86%
same,inhibition at 5 µM,"[4]; CHO, V505A, 5 μM HMQ1611, late current at +30 mV, n = 7, p < 0.01 vs. WT",44 ± 4.4%
same,fold decrease in blocking potency compared with IC50 of WT channel,[4]; V505A vs WT,3 fold
same,IC50,"[4]; V505A, Hill fit, n = 7",6.44 ± 0.18 µM
same,inhibition at 5 µM,"[5]; CHO, T480A, 5 μM HMQ1611, late current at +30 mV, n = 7, p < 0.01 vs. WT",15.3 ± 2.5%
same,fold decrease in blocking potency compared with IC50 of WT channel,[5]; T480A vs WT,7 fold
same,inhibition at 5 µM,"[6]; CHO, I508A, 5 μM HMQ1611, late current at +30 mV, n = 7, p < 0.01 vs. WT",16.2 ± 2.09%
same,fold decrease in blocking potency compared with IC50 of WT channel,[6]; I508A vs WT,5 fold
same,IC50,"[6]; I508A, Hill fit, n = 7",10.5 ± 0.41 µM
same,time to start of inhibition on exposure,[7]; 5 μM HMQ1611,5 to 10 s
same,time to steady state inhibition,[7]; 5 μM HMQ1611,≤ 3 min
same,peak current amplitude at the first depolarizing step,"[7]; 5 μM HMQ1611, 1 Hz train, control 6.11 ± 0.99 nA, n = 7, p > 0.05",5.97 ± 0.98 nA
same,decrease of peak amplitude of hKv1.5 current at the 20th pulse vs first pulse,"[7]; 5 μM HMQ1611, 1 Hz, control 18.29 ± 2.20%, n = 7",46.57 ± 4.19%
same,peak current amplitude at the first depolarizing step,"[7]; 5 μM HMQ1611, 2 Hz train, control 5.82 ± 1.14 nA, n = 6, p > 0.05",5.67 ± 0.99 nA
same,decrease of peak amplitude of hKv1.5 current at the 20th pulse vs first pulse,"[7]; 5 μM HMQ1611, 2 Hz, control 32.73 ± 1.74%, n = 6",66.47 ± 2.38%
same,steady state level of inhibition of hKv1.5 current,"[7]; 5 μM HMQ1611, representative time course, end of 300 ms step to +30 mV, within 3 min",approximately 86 % inhibition
same,activation time constant,"[7]; 5 μM HMQ1611, step to +30 mV, control 1.50 ± 0.25 ms, n = 7, p > 0.05",1.47 ± 0.18 ms
same,inhibition at 5 µM,"[7]; CHO, WT, 5 μM HMQ1611, late current at end of 300 ms step to +30 mV, n = 7",83.9 ± 4.06%
same,IC50,"[7]; WT, late current at end of 300 ms depolarizing step to +30 mV, CHO cells, Hill fit, n = 7, read-out: IC50 for inhibition of hKv1.5 current",2.07 ± 0.21 µM
same,recovery of hKv1.5 current after washout,"[7]; after 5 μM HMQ1611, within 10 min after washout with normal Tyrode solution",94.64 % of the control value
same,Kd,"[7]; apparent dissociation constant, +30 mV, read-out: KD value derived by (k-1)/(k+1)",4.48 µM
same,slope factor k of Boltzmann activation fit,"[7]; during exposure to 5 μM HMQ1611, control 14.09, 6 cells, p < 0.01 vs. control",1.34
same,"V1/2 (voltage at half-maximal activation, tail currents)","[7]; during exposure to 5 μM HMQ1611, control -0.76 mV, 6 cells, p < 0.01 vs. control",-29.9 mV
same,apparent binding rate constant (k+1),[7]; [9],6.65e+06 M⁻¹ s⁻¹
same,apparent unbinding rate constant (k-1),[7]; [9],29.9 s⁻¹
same,deactivation time constant,"[7]; in presence of 5 μM HMQ1611, tail current at -40 mV after +30 mV, control 14.8 ± 1.4 ms, n = 10, p > 0.05",13.1 ± 2.3 ms
same,effect of intracellular dialysis on Kv1.5 currents,[7]; intracellular dialysis of cells with 5 μM HMQ1611 for 4 min after whole-cell configuration,did not change the Kv1.5 currents
same,inhibition at 5 µM,"[8]; CHO, V516A, 5 μM HMQ1611, late current at +30 mV, n = 6, p < 0.01 vs. WT",44.6 ± 5.48%
same,fold decrease in blocking potency compared with IC50 of WT channel,[8]; V516A vs WT,4 fold
